Assay results from US8759338B2, “Heterocyclic kinase inhibitors” (Novartis AG, priority 2008, dated 2014).

Experiments:
PIM1 = PIM1 (Homo sapiens (Human), UniProt P11309); assay: Pim1 ATP depletion assay; type: biochemical; conditions: 20 μM ATP, 40 μM BAD peptide
Procedure: The activity of PIM1 is measured using a luciferase-luciferin based ATP detection reagent to quantify ATP depletion resulting from kinase-catalyzed phosphoryl transfer to a peptide substrate. Compounds to be tested are dissolved in 100% DMSO and directly distributed into white 384-well plates at 0.5 μA per well. To start the reaction, 10 μl of 5 nM Pim1 kinase and 80 μM BAD peptide (RSRHSSYPAGT-OH) in assay buffer (50 mM HEPES pH 7.5, 5 mM MgCl2, 1 mM DTT, 0.05% BSA) is added into each well. After 15 minutes, 10 μl of 40 μM ATP in assay buffer is added. Final assay concentrations are 2.5 nM PIM1, 20 μM ATP, 40 μM BAD peptide and 2.5% DMSO. The reaction is performed until approximately 50% of the ATP is depleted, then stopped with the addition of 20 μl KinaseGlo Plus (Promega Corporation) solution. The stopped reaction is incubated for 10 minutes and the remaining ATP detected via luminescence on the Victor2 (Perkin Elmer). […] IC50, the half maximal inhibitory concentration, represents the concentration of a test compound that is required for 50% inhibition of its target in vitro.

PIM2 = PIM2 (Homo sapiens (Human), UniProt Q9P1W9); assay: Pim2 ATP depletion assay; type: biochemical; conditions: 4 μM ATP, 10 μM BAD peptide
Chain of PIM2 (Q9P1W9 whole entry, species assumed): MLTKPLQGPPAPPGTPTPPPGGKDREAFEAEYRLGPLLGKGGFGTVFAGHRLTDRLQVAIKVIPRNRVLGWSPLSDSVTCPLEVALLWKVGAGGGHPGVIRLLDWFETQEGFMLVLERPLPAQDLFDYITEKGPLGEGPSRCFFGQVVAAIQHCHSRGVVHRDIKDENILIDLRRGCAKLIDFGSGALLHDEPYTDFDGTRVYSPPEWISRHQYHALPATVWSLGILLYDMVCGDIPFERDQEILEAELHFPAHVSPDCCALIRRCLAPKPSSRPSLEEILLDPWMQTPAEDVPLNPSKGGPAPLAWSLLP
Procedure: The activity of PIM2 is measured using a luciferase-luciferin based ATP detection reagent to quantify ATP depletion resulting from kinase-catalyzed phosphoryl transfer to a peptide substrate. Compounds to be tested are dissolved in 100% DMSO and directly distributed into white 384-well plates at 0.5 μl per well. To start the reaction, 10 μl of 10 nM Pim2 kinase and 20 μM BAD peptide (RSRHSSYPAGT-OH) in assay buffer (50 mM HEPES pH 7.5, 5 mM MgCl2, 1 mM DTT, 0.05% BSA) is added into each well. After 15 minutes, 10 μl of 8 μM ATP in assay buffer is added. Final assay concentrations are 5 nM PIM2, 4 μM ATP, 10 μM BAD peptide and 2.5% DMSO. The reaction is performed until approximately 50% of the ATP is depleted, then stopped with the addition of 20 μl KinaseGlo Plus (Promega Corporation) solution. The stopped reaction is incubated for 10 minutes and the remaining ATP detected via luminescence on the Victor2 (Perkin Elmer).

PIM3 = PIM3 (Homo sapiens (Human), UniProt Q86V86); assay: Pim3 ATP depletion assay; type: biochemical; conditions: 40 μM ATP, 100 μM BAD peptide
Procedure: The activity of PIM3 is measured using a luciferase-luciferin based ATP detection reagent to quantify ATP depletion resulting from kinase-catalyzed phosphoryl transfer to a peptide substrate. Compounds to be tested are dissolved in 100% DMSO and directly distributed into white 384-well plates at 0.5 μA per well. To start the reaction, 10 μl of 10 nM Pim3 kinase and 200 μM BAD peptide (RSRHSSYPAGT-OH) in assay buffer (50 mM HEPES pH 7.5, 5 mM MgCl2, 1 mM DTT, 0.05% BSA) is added into each well. After 15 minutes, 10 μl of 80 μM ATP in assay buffer is added. Final assay concentrations are 5 nM PIM1, 40 μM ATP, 100 μM BAD peptide and 2.5% DMSO. The reaction is performed until approximately 50% of the ATP is depleted, then stopped by the addition of 20 μl KinaseGlo Plus (Promega Corporation) solution. The stopped reaction is incubated for 10 minutes and the remaining ATP detected via luminescence on the Victor2 (Perkin Elmer).

KMS11 cells = assay: Cell proliferation assay; type: cell-based; conditions: KMS-11, 72 h; KMS11 human myeloma cell line, 3 days, CellTiter-Glo
Procedure: KMS11 (human myeloma cell line), were cultured in IMDM supplemented with 10% FBS, sodium pyruvate and antibiotics. Cells were plated in the same medium at a density of 2000 cells per well into 96 well tissue culture plates, with outside wells vacant, on the day of assay. MM1.s (human myeloma cell line), were cultured in RPMI1640 supplemented with 10% FBS, sodium pyruvate and antibiotics. Cells were plated in the same medium at a density of 5000 cells per well into 96 well tissue culture plates, with outside wells vacant, on the day of assay.
Test compounds supplied in DMSO were diluted into DMSO at 500 times the desired final concentrations before dilution into culture media to 2 times final concentrations. Equal volumes of 2× compounds were added to the cells in 96 well plates and incubated at 37° C. for 3 days.
After 3 days plates were equilibrated to room temperature and equal volume of CellTiter-Glow Reagent (Promega) was added to the culture wells. The plates were agitated briefly and luminescent signal was measured with luminometer. The percent inhibition of the signal seen in cells treated with DMSO alone vs. cells treated with control compound was calculated and used to determine EC50 values (i.e., the concentration of a test compound that is required to obtain 50% of the maximum effect in the cells) for tested compounds, as shown in Example 24.

Chain of PIM1 (P11309 whole entry, species assumed): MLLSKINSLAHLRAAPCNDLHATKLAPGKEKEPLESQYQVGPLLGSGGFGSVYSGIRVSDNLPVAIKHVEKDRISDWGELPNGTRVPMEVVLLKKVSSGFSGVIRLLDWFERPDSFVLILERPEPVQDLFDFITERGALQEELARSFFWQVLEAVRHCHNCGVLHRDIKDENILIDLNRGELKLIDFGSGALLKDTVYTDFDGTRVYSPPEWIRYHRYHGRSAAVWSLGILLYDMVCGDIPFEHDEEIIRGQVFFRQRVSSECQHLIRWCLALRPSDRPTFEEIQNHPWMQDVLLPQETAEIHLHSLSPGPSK

SMILES	IC50 (PIM1) [µM]	IC50 (PIM2) [µM]	IC50 (PIM3) [µM]	EC50 (KMS11 cells) [µM]
NC1C=C(c2ccncc2Nc2cccc3cnc(-c4c(F)cccc4F)nc23)CCC1 (centres unmarked) [Example 1, N-(4-(3-aminocyclohex-1-enyl)pyridin-3-yl)-2-(2,6-difluorophenyl)quinazolin-8-amine]	0.152	0.392	0.078	–
N[C@@H]1CN(c2ccncc2Nc2cccc3cnc(-c4c(F)cccc4F)nc23)CC[C@@H]1O [Example 2, (3R,4S)-3-amino-1-(3-(2-(2,6-difluorophenyl)-quinazolin-8-ylamino)-pyridin-4-yl)piperidin-4-ol]	0.039	0.09	0.018	–
N[C@@H]1CN(c2ccncc2Nc2cccc3cnc(-c4c(F)cccc4F)nc23)CC[C@H]1O [Example 3, (3R,4R)-3-amino-1-(3-(2-(2,6-difluorophenyl)-quinazolin-8-ylamino)-pyridin-4-yl)piperidin-4-ol]	0.184	0.23	0.067	–
CCO[C@@H]1C[C@H](N)CN(c2ccncc2Nc2cccc3cnc(-c4c(F)cccc4F)nc23)C1 [Example 6, N-(4-((3S,5R)-3-amino-5-ethoxypiperidin-1-yl)pyridin-3-yl)-2-(2,6-difluorophenyl)quinazolin-8-amine]	1.7	0.46	2.1	–
N[C@@H]1CCCN(c2ccncc2Nc2cccc3cnc(-c4c(F)cccc4F)nc23)C1 [Example 7, (R)-N-(4-(3-aminopiperidin-1-yl)pyridin-3-yl)-2-(2,6-difluorophenyl)quinazolin-8-amine]	2.1	3.6	0.212	–
NC1CC(N)CN(c2ccncc2Nc2cccc3cnc(-c4c(F)cccc4F)nc23)C1 (centres unmarked) [Example 8, 1-(3-(2-(2,6-difluorophenyl)quinazolin-8-ylamino)pyridin-4-yl)piperidine-3,5-diamine]	2.3	2.5	0.246	–
N[C@@H]1CN(c2ccncc2Nc2cccc3cnc(-c4c(F)cccc4F)nc23)CC[C@H]1F [Example 9, N-(4-((3R,4R)-3-amino-4-fluoropiperidin-1-yl)pyridin-3-yl)-2-(2,6-difluorophenyl)quinazolin-8-amine]	0.465	0.498	0.17	–
N[C@H]1CN(c2ccncc2Nc2cccc3cnc(-c4c(F)cccc4F)nc23)CC[C@@H]1F [Example 10, N-(4-((3S,4S)-3-amino-4-fluoropiperidin-1-yl)pyridin-3-yl)-2-(2,6-difluorophenyl)quinazolin-8-amine]	4.7	> 25	0.502	–
NC1CCCCN(c2ccncc2Nc2cccc3cnc(-c4c(F)cccc4F)nc23)C1 (centres unmarked) [Example 11, N-(4-(3-aminoazepan-1-yl)pyridin-3-yl)-2-(2,6-difluorophenyl)quinazolin-8-amine]	2.9	> 25	0.468	–
N[C@H]1CCCN(c2ncncc2Nc2cccc3cnc(-c4c(F)cccc4F)nc23)C1 [Example 12, (S)-N-(4-(3-aminopiperidin-1-yl)pyrimidin-5-yl)-2-(2,6-difluorophenyl)quinazolin-8-amine]	5.4	> 25	3.9	–
N[C@H]1C[C@@H](CF)CN(c2ccncc2Nc2cccc3cnc(-c4c(F)cccc4F)nc23)C1 [Example 13, N-(4-((3S,5R)-3-amino-5-(fluoromethyl)piperidin-1-yl)pyridin-3-yl)-2-(2,6-difluorophenyl)quinazolin-8-amine]	0.053	0.02	0.049	7.3
C[C@H]1C[C@@H](N)CN(c2ccncc2Nc2cccc3cnc(-c4c(F)cccc4F)nc23)C1 [Example 14, N-(4-((3R,5S)-3-amino-5-methylpiperidin-1-yl)pyridin-3-yl)-2-(2,6-difluorophenyl)quinazolin-8-amine]	0.882	0.852	0.18	–
C[C@@H]1C[C@H](N)CN(c2ccncc2Nc2cccc3cnc(-c4c(F)cccc4F)nc23)C1 [Example 15, N-(4-((3S,5R)-3-amino-5-methylpiperidin-1-yl)pyridin-3-yl)-2-(2,6-difluorophenyl)quinazolin-8-amine]	0.018	0.009	0.019	2.6
N[C@H]1CCCN(c2ccncc2Nc2cccc3cnc(-c4nccs4)nc23)C1 [Example 16, (S)-N-(4-(3-aminopiperidin-1-yl)pyridin-3-yl)-2-(thiazol-2-yl)quinazolin-8-amine]	0.411	1.9	0.149	–
N[C@H]1CCCN(c2ccncc2Nc2cccc3cnc(-c4c(F)cccc4F)nc23)C1 [Example 17, (S)-N-(4-(3-aminopiperidin-1-yl)pyridin-3-yl)-2-(2,6-difluorophenyl)quinazolin-8-amine]	0.021	0.031	0.016	–
N[C@H]1CCCN(c2ccncc2Nc2cccc3cnc(-c4ccccc4F)nc23)C1 [Example 18, (S)-N-(4-(3-aminopiperidin-1-yl)pyridin-3-yl)-2-(2-fluorophenyl)quinazolin-8-amine]	0.029	0.131	0.018	–
N[C@H]1CCCN(c2ccncc2Nc2cccc3cnc(-c4cccc(-c5nccs5)c4)nc23)C1 [Example 19, (S)-N-(4-(3-aminopiperidin-1-yl)pyridin-3-yl)-2-(3-(thiazol-2-yl)phenyl)quinazolin-8-amine]	0.056	2	0.095	–
